Data taken from patent publication US10941121B2 (AZIENDA OSPEDALIERA UNIVERSITARIA SENESE, priority 2015, dated 2021).
pIC50: −log10 of the molar value. Like-named read-outs stand apart in the source and are kept apart here.

Legend:
[1] = Cytotoxicity, MTT method in LUNET cells; type: cell-based; conditions: human; MMT method in LUNET cells; read-out: CC50 (μM) non-infected cells
Protocol: Toxicity (CC50) was analysed in the Lunet/HuH7 cells by the addition of 10 μL of MTT (3-(4,5-dimethylthiazol-2-yl)-2,5-diphenyltetrazolium bromide) per well. After 4 h of incubation at 37° C. in a humidified atmosphere with 5% CO2, the amount of formazan produced was quantified spectrophotometrically at 550/620 nm (C. Pannecouque et al, Nature protocol 2008; 3 (3): 427-434). […] These assays were done in duplicate.

[2] = Parallel Artificial Membrane Permeability Assay (PAMPA); type: in vitro ADME; conditions: for Papp at 5 h, 0.5 mM: PAMPA, phosphatidylcholine in dodecane, pH 7.4, 5 h, room temperature, read-out: PAMPA Papp *10^−6 (cm/s) GI; for PAMPA membrane retention (RM %): value in brackets in the PAMPA cell
Protocol: Parallel Artificial Membrane Permeability Assay (PAMPA). Donor solution (0.5 mM) was prepared by diluting 1 mM dimethylsulfoxide (DMSO) compound stock solution using phosphate buffer (pH 7.4, 0.025 M). Filters were coated with 5 μL of a 1% (w/v) dodecane solution of phosphatidylcholine prepared from CHCl3 solution 10% w/v, for intestinal permeability. Donor solution (150 μL) was added to each well of the filter plate. To each well of the acceptor plate were added […] (50% DMSO in phosphate buffer). All compounds were tested in three different plates on different days. The sandwich was incubated for 5 h at room temperature under gentle shaking. After the incubation time, the plates were separated, and samples were taken from both receiver and donor sides and analyzed using LC with UV detection at 280 nm.
LC analysis were performed with a Varian Prostar HPLC system (Varian Analytical Instruments, USA) equipped with a binary pump with a manual injection valve and model Prostar 325 UV-VIS Detector.
Permeability (Papp) for PAMPA was calculated according to the following equation, obtained from Wohnsland and Faller and Sugano et al. equation with some modification in order to obtain permeability values in cm s^−1,
where VA is the volume in the acceptor well, VD is the volume in the donor well (cm^3), A is the “effective area” of the membrane (cm^2), t is the incubation time (s) and r the ratio between drug concentration in the acceptor and equilibrium concentration of the drug in the total volume (VD+VA). Drug concentration is estimated by using the peak area integration.
Membrane retentions (%) were calculated according to the following equation: […]
where r is the ratio between drug concentration in the acceptor and equilibrium concentration, D, A, and Eq represented drug concentration in the donor, acceptor and equilibrium solution, respectively.

Water Solubility Assay = type: physicochemical; conditions: thermodynamic from solid
Protocol: Water Solubility Assay. Each solid compound (1 mg) was added to 1 mL of water. The samples were shaked in a shaker bath at room temperature for 24-36 h. The suspensions were filtered through a 0.45 μm nylon filter (Acrodisc), and the solubilized compound determined by LC-MS-MS assay. For each compound the determination was performed in triplicate.
For the quantification was used an LC-MS system consisted of a Varian apparatus (Varian Inc) including a vacuum solvent degassing unit, two pumps (212-LC), a Triple Quadrupole MSD (Mod. 320-LC) mass spectrometer with ES interface and Varian MS Workstation System Control Vers. 6.9 software. […] The flow rate was 0.2 mL min^−1 and injection volume was 5 μL. The instrument operated in positive mode and parameters were: detector 1850 V, drying gas pressure 25.0 psi, desolvation temperature 300.0° C., nebulizing gas 40.0 psi, needle 5000 V and shield 600 V. Nitrogen was used as nebulizer gas and drying gas. Collision induced dissociation was performed using Argon as the collision gas at a pressure of 1.8 mTorr in the collision cell.

DDX3 Helicase [3] = biological target: T1, DDX3 Helicase (Homo sapiens, UniProt O00571); conditions: for DDX3 helicase activity compared with EI01D: in words; for IC50: read-out: ID50 (μM) against DDX3 Helicase, n.a. = compound not active
DDX3 Helicase [4] = biological target: T1, DDX3 Helicase; experiment: biochemical
[5] = tested on: Hepatitis C Virus (HCV) replicon system; experiment: HCV replicon system, luciferase method in LucUbiNeo-ET cells; conditions: for EC50: Hepatitis C virus, 48 h, read-out: EC50 (μM) HCV replicon system
[6] = experimental aqueous solubility, read-out: LogS (converted)
[7] = room temperature, 24-36 h, read-out: Aq. Solub.

T1 sequence (O00571 whole entry): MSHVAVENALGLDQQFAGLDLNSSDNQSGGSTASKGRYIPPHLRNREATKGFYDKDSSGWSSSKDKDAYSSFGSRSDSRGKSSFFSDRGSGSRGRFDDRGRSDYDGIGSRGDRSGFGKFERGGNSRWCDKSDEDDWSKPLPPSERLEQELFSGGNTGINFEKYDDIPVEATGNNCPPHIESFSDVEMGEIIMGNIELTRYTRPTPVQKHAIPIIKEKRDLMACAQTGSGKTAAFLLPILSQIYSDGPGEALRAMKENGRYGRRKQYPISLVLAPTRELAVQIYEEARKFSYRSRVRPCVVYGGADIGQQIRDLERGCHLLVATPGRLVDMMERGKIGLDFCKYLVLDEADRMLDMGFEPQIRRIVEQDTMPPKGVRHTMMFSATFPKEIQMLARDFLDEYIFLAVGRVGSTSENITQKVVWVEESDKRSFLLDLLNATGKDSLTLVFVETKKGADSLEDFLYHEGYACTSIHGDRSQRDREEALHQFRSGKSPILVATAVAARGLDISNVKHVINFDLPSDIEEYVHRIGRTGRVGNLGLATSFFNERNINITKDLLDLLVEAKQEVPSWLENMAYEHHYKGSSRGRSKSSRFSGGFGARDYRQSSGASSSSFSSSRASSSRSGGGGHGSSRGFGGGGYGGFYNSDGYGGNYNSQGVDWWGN

Row | SMILES | CC50 [1] [µM] | pIC50 (DDX3 Helicase [4]) | EC50 [5] [µM] | also measured
1 | CC(C)CCc1cn(-c2ccc(NC(=O)Nc3ccccc3C(F)(F)F)cc2)nn1 [Compound 22b, 1-(4-(4-isopentyl-1H-1,2,3-triazol-1-yl)phenyl)-3-(2-(trifluoromethyl)phenyl)urea] | 46.8 | 6.77 | 0.67 | Papp at 5 h, 0.5 mM [2]: 7.41 ×10⁻⁶ cm/s; PAMPA membrane retention (RM %) [2]: 24.8%; solubility (Water Solubility Assay; [6]): < 0.00251 µM; solubility (Water Solubility Assay; [7]): 2 ng/mL; DDX3 helicase activity compared with EI01D (DDX3 Helicase [3]): approximately ten-fold more active; activity against HCV, in words [5]: best activity
2 | Cc1ccccc1NC(=O)Nc1ccc(-n2cc(CCO)nn2)cc1 [Compound 35b, 1-(4-(4-(hydroxyethyl)-1H-1,2,3-triazol-1-yl)phenyl)-3-o-tolylurea] | > 370 | 4.70 | 28.9 | 
3 | Cc1c(Cl)cccc1NC(=O)Nc1ccc(-n2cc(CCC(C)C)nn2)cc1 [Compound 21b, 1-(3-chloro-2-methylphenyl)-3-(4-(4-isopentyl-1H-1,2,3-triazol-1-yl)phenyl)urea] | 42.1 |  | 6.11 | Papp at 5 h, 0.5 mM [2]: 2.51 ×10⁻⁶ cm/s; PAMPA membrane retention (RM %) [2]: 59.1%; solubility (Water Solubility Assay; [6]): < 0.00251 µM; solubility (Water Solubility Assay; [7]): < 1 ng/mL
4 | Cc1ccccc1NC(=O)Nc1ccc(-n2cc(CN(C)Cc3ccccc3)nn2)cc1 [Compound 8c, 1-(4-(4-methanamine,N-[(phenyl)methyl]-N-methyl-1H-1,2,3-triazol-1yl)phenyl)-3-o-tolylurea] |  | 4.64 |  | 
5 | CCCCn1nnc(-c2ccc(NC(=O)Nc3cnccc3C)cc2)n1 [Compound 52, 1-(4-(2-butyl-2H-tetrazol-5-yl)phenyl)-3-(4-methylpyridin-3-yl)urea] |  | 5.60 |  | 
6 | CCc1cn(-c2ccc(NC(=O)Nc3ccccc3C)cc2)nn1 [Compound 8g, 1-(4-(4-ethyl-1H-1,2,3-triazol-1-yl)phenyl)-3-o-tolylurea] | 295 | 6.01 | 36 | 
7 | Cc1ccccc1NC(=O)Nc1ccc(-n2cc(CCCN(C)C)nn2)cc1 [Compound 35i, 1-(4-(4-(dimethylaminopropyl)-1H-1,2,3-triazol-1-yl)phenyl)-3-o-tolylurea] |  |  |  | IC50 (DDX3 Helicase [3]): 2.9 µM
8 | Cc1ccccc1NC(=O)Nc1ccc(-n2cc(CN3CCOCC3)nn2)cc1 [Compound 35e, 1-(4-(4-(morpholinomethyl)-1H-1,2,3-triazol-1-yl)phenyl)-3-o-tolylurea] | > 125 |  | > 125 | 
9 | CC(C)CC(=O)OCCc1cn(-c2ccc(NC(=O)Nc3ccccc3C(F)(F)F)cc2)nn1 [Compound 38, 2-(1-(4-(3-(2-(trifluoromethyl)phenyl)ureido)phenyl)-1H-1,2,3-triazol-4-yl)ethyl 3-methylbutanoate] | 23.2 |  | 0.5 | IC50 (DDX3 Helicase [3]): 0.4 µM
10 | CCOCn1nnc(-c2ccc(NC(=O)Nc3ccccc3C)cc2)n1 [Compound 50, 1-(4-(2-(ethoxymethyl)-2H-tetrazol-5-yl)phenyl)-3-(o-tolyl)urea] | 245 | 4.85 | 22.8 | 
11 | Cc1ccccc1NC(=O)Nc1ccc(-n2cc(C(C)(C)C)nn2)cc1 [Compound 8b, 1-(4-(4-tert-butyl-1H-1,2,3-triazol-1-yl)phenyl)-3-o-tolylurea] | 100 | 5.47 | 5.73 | 
12 | Cc1ccncc1NC(=O)Nc1ccc(-n2cc(CCC(C)C)nn2)cc1 [Compound 15b, 1-(4-(4-isopentyl-1H-1,2,3-triazol-1-yl)phenyl)-3-(4-methylpyridin-3-yl)urea] | 180 | 5.70 | 3.65 | 
13 | CCCCc1cn(-c2cccc(S(=O)(=O)Nc3ccc(OC)cc3)c2)nn1 [Compound 64b, 3-(4-butyl-1H-1,2,3-triazol-1-yl)-N-(4-methoxyphenyl)benzenesulfonamide] |  | 4.28 |  | 
14 | Cc1cn(-c2ccc(NC(=O)Nc3ccccc3C)cc2)nn1 [Compound 8f, 1-(4-(4-methyl-1H-1,2,3-triazol-1-yl)phenyl)-3-o-tolylurea] | 36 |  | > 36 | 
15 | Cc1ccccc1NC(=O)Nc1ccc(-n2cc(CCOC(=O)CC(C)C)nn2)cc1 [Compound 37, 2-(1-(4-(3-(o-tolyl)ureido)phenyl)-1H-1,2,3-triazol-4-yl)ethyl 3-methylbutanoate] | 180 |  | 11.7 | IC50 (DDX3 Helicase [3]): 1.3 µM
16 | CCCCc1cn(-c2ccc(S(=O)(=O)Nc3ccccc3O)cc2)nn1 [Compound 65a, 4-(4-butyl-1H-1,2,3-triazol-1-yl)-N-(2-hydroxyphenyl)benzenesulfonamide] |  | 4.81 |  | 
17 | Cc1ccccc1NC(=O)Nc1ccc(-n2cc(CO)nn2)cc1 [Compound 35a, 1-(4-(4-(hydroxymethyl)-1H-1,2,3-triazol-1-yl)phenyl)-3-o-tolylurea] |  | 4.76 |  | 
18 | CCCCc1cn(-c2ccc(NC(=O)Nc3cnccc3C)cc2)nn1 [Compound 15a, 1-(4-(4-butyl-1H-1,2,3-triazol-1-yl)phenyl)-3-(4-methylpyridin-3-yl)urea] |  | 5.83 |  | 
19 | Cc1ccccc1NC(=O)Nc1ccc(-n2cc(CCN3CCOCC3)nn2)cc1 [Compound 35f, 1-(4-(4-(morpholinoethyl)-1H-1,2,3-triazol-1-yl)phenyl)-3-o-tolylurea] | > 125 |  | > 125 | 
20 | CC(C)CCc1cn(-c2ccc(NC(=O)Nc3ccccc3F)cc2)nn1 [Compound 55a, 1-(2-fluorophenyl)-3-(4-(4-isopentyl-1H-1,2,3-triazol-1-yl)phenyl)urea] | > 340 |  | 0.4 | DDX3 helicase activity compared with EI01D (DDX3 Helicase [3]): approximately ten-fold more active; IC50 (DDX3 Helicase [3]): 0.12 µM; activity against HCV, in words [5]: best activity
21 | O=C(Nc1ccc(-n2cc(CCOC(=O)/C=C/c3ccc4c(c3)OCO4)nn2)cc1)Nc1ccccc1C(F)(F)F [Compound 39, 2-(1-(4-(3-(2-(trifluoromethyl)phenyl)ureido)phenyl)-1H-1,2,3-triazol-4-yl)ethyl 3-(benzo[d][1,3]dioxol-5-yl)acrylate] | 28.6 |  | 4.3 | IC50 (DDX3 Helicase [3]): 5.1 µM
22 | Cc1nc(Cl)c2ccccc2c1NC(=O)Nc1ccc(-n2cc(CCC(C)C)nn2)cc1 [Compound 55g, 1-(1-chloro-3-methylisoquinolin-4-yl)-3-(4-(4-isopentyl-1H-1,2,3-triazol-1-yl)phenyl)urea] | > 278 | 5.00 | 12.4 | 
23 | COCCc1cn(-c2ccc(NC(=O)Nc3ccccc3C)cc2)nn1 [Compound 20f, 1-(4-(4-(2-methoxyethyl)-1H-1,2,3-triazol-1-yl)phenyl)-3-o-tolylurea] | 44.4 |  | 28.8 | Papp at 5 h, 0.5 mM [2]: 0.69 ×10⁻⁶ cm/s; PAMPA membrane retention (RM %) [2]: 7.4%; solubility (Water Solubility Assay; [6]): 50.1 µM; solubility (Water Solubility Assay; [7]): 26300 ng/mL; IC50 (DDX3 Helicase [3]): 1 µM
24 | CCCC(C)C(F)c1cn(-c2ccc(NC(=O)Nc3ccccc3C(F)(F)F)cc2)nn1 (centres unmarked) [Compound 42c, 1-(4-(4-(1-fluoro-2-methylpentyl)-1H-1,2,3-triazol-1-yl)phenyl)-3-(2-(trifluoromethyl)phenyl) urea] |  | 6.52 |  | 
25 | Cc1ccccc1NC(=O)Nc1ccc(-n2cc(C(F)(F)C(F)(F)C(F)(F)C(F)(F)F)nn2)cc1 [Compound 20c] | > 125 |  | > 125 | IC50 (DDX3 Helicase [3]): 6 µM
